Data as given in patent EP0008269A1, “Medicines containing as active ingredients compounds of the benzene-sulfone type; compounds of this type and process for their preparation” (CHOAY S.A., priority 1978, dated 1980).

Columns and labels:
[1] = test system: cellules de la Lignée L.1210; assay: Cytostatic activity: growth inhibition of L.1210 cells; format: cell-based; settings: L.1210 cells in culture
Procedure: Cette activité est étudiée en mesurant le pouvoir d'in- hibition de la croissance de cellules de la Lignée L.1210 cultivée sur un milieu approprié.
Ce pouvoir est exprimé en poids de produit par 10^5 cellules inhibant de 50 % la croissance cellulaire.
Pour la substance de l'exemple 5, ce poids est de 6 µg/10^5 cellules, pour celle de l'exemple 7, il est de 4 µg/10^5 cellules.

facteurs de coagulation = assay: Activity on coagulation factors: thrombo-elastography on blood samples (terms r and k)
From the text: L'étude est faite par thrombo-élastographie sur des échantillons sanguins auxquels sont ajoutées des quantités dosées des substances actives selon l'invention.
La mesure des termes r (temps d'apparition de la fibrine pendant lequel la viscosité ne varie pas) et k (temps d'accroissement de la viscosité jusqu'à une valeur donnée) montre, pour les échantillons traités à l'aide de la substance de l'exemple 7, une augmentation de 32 % pour 10/ug/ml et de 45 % pour 100/ug/ml.

fibrillation = assay: Antifibrillant activity: chloroform-induced cardiac fibrillation in mice; format: in vivo, souris; settings: 100 mg/kg i.p., 15 min before chloroform exposure
Procedure: Pour ces essais, on utilise comme précédemment des lots de 10 souris auxquelles sont administrés, par voie intrapéritonéale, 0,5 ml d'une solution ou suspension de substance étudiée dans du soluté isotonique.
Les souris sont traitées suivant une méthode voisine de celle décrite par B. Vargaftig et J.L. Coignet (Eur. J. Pharmacol., 1969, 6, 49). Selon cette méthode, les souris sont soumises à une atmosphère chargée d'une quantité déterminée de chloroforme. Lorsque les mouvements respiratoires cessent, le thorax est ouvert et le coeur examiné pour l'observation des tremblements superficiels très rapides. La fibrillation est positive lorsque ces mouvements sont observés pendant plus de 5 secondes.
La substance étudiée est administrée à raison de 100 mg/kg 15 minutes avant l'exposition au chloroforme.
La protection observée pour les substances des exemples 22 et 27 est d'environ 30 %.

vomissements = assay: Antiemetic activity: apomorphine-induced vomiting in dogs; format: in vivo, chiens Beagle; settings: 1 mg/kg intramuscular, 30 min before apomorphine 0,1 mg/kg s.c., vomiting counted for the next half hour
Procedure: Les essais sont effectués sur des chiens Beagle adultes de 8 à 12 kg, qui sont mis à jeun pendant 24 heures.
Chaque animal est son propre témoin, un essai sans protection étant réalisé 8 jours avant l'essai proprement dit en présence de la substance étudiée.
Les substances étudiées sont administrées dans du soluté isotonique à raison de 1 mg/kg et par voie intramusculaire. 30 minutes après, on injecte l'apomorphine par voie sous-cutanée, à raison de 0,1 mg/kg., et l'on dénombre les vomissements dans la demi-heure suivante.
Dans ces conditions, on a observé, pour les substances des exemples 22, 24, 26 et 27, une réduction du nombre de vomissements qui est respectivement de 50,8 %, 28,2 %, 44,2 %, 47,6 %.

[2] = test system: ulcères provoqués par immobilisation; assay: Antiulcer activity: restraint (immobilisation) ulcer in rats; format: in vivo; settings: rat, 10 mg/kg i.p., compared with controls
Procedure: Elle est déterminée sur les ulcères provoqués par immobilisation chez le rat. La méthode de mesure est celle décrite par G. Narcisse (Thérapie, 1972, 27, 705). La substance est administrée par voie intrapéritonéale, à raison de 10 mg/kg.
Par comparaison avec des témoins, le pourcentage de protection, dans le cas du produit de l'exemple 22, est de 61,3 %.

Compound	poids de produit par 10^5 cellules inhibant de 50 % la croissance cellulaire [1] [µg/10^5 cellules]	protection (fibrillation) (fibrillation) [%]	réduction du nombre de vomissements (vomissements)	other results
COc1ccccc1S(=O)(=O)CCCl [Exemple 5]	6	–	–	–
COc1ccc(Cl)cc1S(=O)(=O)CCCl [Exemple 7]	4	–	–	augmentation des termes r et k (facteurs de coagulation; 10/ug/ml added to blood samples): 32%; augmentation des termes r et k (facteurs de coagulation; 100/ug/ml added to blood samples): 45%
COc1ccc(Cl)cc1S(=O)(=O)CCN1CCOCC1 [Exemple 22]	–	~30	50,8%	pourcentage de protection [2]: 61,3%
COc1ccc(Cl)cc1S(=O)(=O)CCN1CCCCC1 [Exemple 24]	–	–	28,2%	–
COc1ccc(Cl)cc1S(=O)(=O)CCCN1CCCC1 [Exemple 26]	–	–	44,2%	–
COc1ccc(Cl)cc1S(=O)(=O)CCCN1CCCCC1 [Exemple 27]	–	~30	47,6%	–
